Test results: patent US8691777B2, “Combination therapy” (Emory University, priority 2011, dated 2014)

Key:
tsc2ang1 cells = assay: proliferation assay with tsc2ang1 cells (Coulter counter); type: cell-based, murine; conditions: rapamycin 5 nM, imatinib 10 μM, 24 hours, vs DMSO control
Protocol: 10^4 tsc2ang1 cells per well were plated in 24-well dishes in triplicate. The next day, fresh medium containing the compounds or vehicle controls was added. Cells were incubated at 37° C. Tsc2ang1 (ATCC CRL 2620) is a murine cell line derived from a cutaneous sarcoma that arose in the extremity of a mouse heterozygous for tsc2; these mice develop cutaneous sarcomas at a frequency of about 10 to 15%. The cells were cultured in complete DMEM medium supplemented with 10% FBS (Sigma Aldrich, St Louis, Mo.). […] Cells were treated with vehicle control (DMSO), rapamycin (5 nM), imatinib (10 μM) or imatinib (10 μM)+rapamycin (5 nM) (shown along X-axis) for 24 h and counted using a Coulter counter. The Y-axis represents cell number with error bars representing the SEM.

PDGFR-β = PDGFR-β (Mus musculus, UniProt P05622); assay: Western blot of PDGFR-β and phospho-PDGFR-β in Tsc2ang1 cells; conditions: imatinib 10 μm, rapamycin 10 nM, vs DMSO control
Sequence of PDGFR-β (P05622 32-1098): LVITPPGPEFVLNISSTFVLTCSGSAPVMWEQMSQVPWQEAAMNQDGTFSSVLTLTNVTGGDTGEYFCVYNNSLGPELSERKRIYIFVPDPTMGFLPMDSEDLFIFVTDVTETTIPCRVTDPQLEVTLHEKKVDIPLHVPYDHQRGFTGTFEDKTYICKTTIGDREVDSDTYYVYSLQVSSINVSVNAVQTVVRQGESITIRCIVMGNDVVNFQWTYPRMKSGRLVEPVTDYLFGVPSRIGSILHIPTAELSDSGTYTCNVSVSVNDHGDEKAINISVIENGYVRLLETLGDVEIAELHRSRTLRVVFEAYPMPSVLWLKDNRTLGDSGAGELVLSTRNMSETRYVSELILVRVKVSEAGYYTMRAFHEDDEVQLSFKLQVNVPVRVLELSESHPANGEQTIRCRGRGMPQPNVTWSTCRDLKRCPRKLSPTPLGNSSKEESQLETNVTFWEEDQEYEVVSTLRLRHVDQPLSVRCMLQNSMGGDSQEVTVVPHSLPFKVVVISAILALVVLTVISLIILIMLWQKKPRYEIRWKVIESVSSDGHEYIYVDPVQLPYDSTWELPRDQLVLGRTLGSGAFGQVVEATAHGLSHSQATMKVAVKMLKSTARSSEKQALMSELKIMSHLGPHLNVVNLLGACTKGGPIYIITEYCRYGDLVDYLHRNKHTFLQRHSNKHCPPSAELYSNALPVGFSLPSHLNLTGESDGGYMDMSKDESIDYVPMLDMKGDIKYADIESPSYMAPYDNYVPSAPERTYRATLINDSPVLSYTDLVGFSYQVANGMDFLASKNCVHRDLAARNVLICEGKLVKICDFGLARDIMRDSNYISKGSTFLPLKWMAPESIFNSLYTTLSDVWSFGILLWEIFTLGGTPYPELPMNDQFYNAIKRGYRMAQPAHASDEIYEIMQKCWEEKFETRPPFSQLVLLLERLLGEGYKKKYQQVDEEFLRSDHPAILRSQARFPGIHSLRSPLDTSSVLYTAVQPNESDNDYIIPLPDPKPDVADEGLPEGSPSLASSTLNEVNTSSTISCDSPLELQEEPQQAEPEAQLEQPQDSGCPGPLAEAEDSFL
Protocol: The impact of imatinib (10 μm), rapamycin (10 nM), and a combination of rapamycin and imatinib on the phosphorylated PDGFR-β signaling pathway was tested in Tsc2ang1cells.
Lysates of Tsc2ang1 cells treated with vehicle or indicated drugs were prepared in NP-40 lysis buffer (1% NP-40, 150 mmol/L NaCl, 10% glycerol, 20 mmol/L HEPES, 1 mmol/L phenylmethylsulfonyl fluoride, 2.5 mmol/L EDTA, 100 μmol/L Na3VO4, and 1% aprotinin) Protein concentration in cleared lysates was determined using an Eppendorf BioPhotometer. Samples were resolved using SDS-PAGE (National Diagnostics) and transferred to nitrocellulose membranes. The membranes were blocked with 5% nonfat dry milk in 10 mmol/L Tris/0.1% Tween 20/100 mmol/L NaCl and incubated with primary antibodies followed by horseradish peroxidase-conjugated secondary antibody. The immunoreactive bands were visualized by enhanced chemiluminescence (Amersham Biosciences). The antibodies used were: Phospho-PDGFR-β antibody (Tyr 1021) (Cell signaling Laboratories); Phospho-PDGFR-β antibody (Tyr 1009) (Cell Signaling Laboratories); Aurora kinase A antibody (4718) (Cell signaling Laboratories), Aurorakinase B (3094) antibody (Cell signaling Laboratories) monoclonal anti-β-tubulin antibody (Sigma) was used as a loading control.

MMP-2 = assay: gelatin zymography of conditioned media of tsc2ang1 cells; type: cell-based, murine; conditions: 24 hours, vs DMSO-treated control
Protocol: The presence and activity of specific MMP species were detected using gelatin zymography. An aliquot of each conditioned media sample was centrifuged at 4,000 rpm for 1-5 min at 4° C. and supernatant was used. A buffer of 4% SDS, 0.15 mol/L Tris (pH 6.8), 20% glycerol and 0.5% (w/v) bromophenol blue was added to the conditioned media sample. […] Gels were then incubated over night at 37° C. in substrate buffer containing 50 mmol/L Tris-HCL (pH 8), 5 mmol/L CaCl2 and 0.02% NaN3. After incubation, gels were stained for 30 min in 0.5% Coomassie Blue R-250 dissolved in acetic acid, isopropyl alcohol and water (1:3:6); destained in acetic acid, ethanol and water (1:3:6). The finalized gel was scored for the presence/absence MMP activity by a blinded evaluator and photographed.

Q: `Cc1ccc(NC(=O)c2ccc(CN3CCN(C)CC3)cc2)cc1Nc1nccc(-c2cccnc2)n1` [imatinib] was tested. Which viable cell number (tsc2ang1 cells) did it give?
A: Its viable cell number is “decrease in the viable cell numbers”.

Q: And the “PDGFR β phosphorylation” value (PDGFR-β)?
A: Its value is “downregulation of PDGFR β phosphorylation”.

Q: What about the MMP-2 gelatinase activity (MMP-2) of the same molecule?
A: Its MMP-2 gelatinase activity is “decrease in the level of MMP-2”.
